Experimental data: patent US4038390A, “Salts of p-dihydroxybenzene disulfonic acids for combatting hemorrhages and fragility of the capillaries” (Laboratorios del Dr. Esteve, S.A., priority 1972, dated 1977)

Legend:
average bleeding time = experiment: Hemostatic action: average bleeding time, method of ROSKAM modified by LAPORTE, rabbit's ear; assay type: in vivo; settings: for DE50: effect and route not given; for Percentage decrease of average bleeding time: one hour after administering
Method: (§1) The activity for the hemostatic action is determined in vivo, by ROSKAM's method, as modified by LAPORTE, on the rabbit's ear, and the protective action on the capillaries by the method of BEACH and STEINETZ. The therapeutical index (ratio between LD50 and TE50) is very favorable, in view of the high activity and low toxicity.

[1] = DL50 of some compounds according to the invention (species not stated); parameters: DL50: unit not given beside the values; settings: in vivo
Source text: The following table gives the values for DL50 and DE50, as well as proposed doses of some compounds according to the present invention.

[2] = Acute toxicity in the rat (LD50, method of Reed and Muench); settings: in vivo
Method: (§2) 1. Acute toxicity in the mouse and the rat
100 to 150 g Sprague-Dawley rats
(§3) The LD50 was determined according to the method of Reed and Muench.

capillary permeability = experiment: Protective action on capillaries: capillary permeability, modified method of BEACH-STEINITZ; assay type: in vivo; settings: mouse
Method: as §1
The action of bis diethylamine p-dihydroxy benzene disulfonate on the capillary permeability for the mouse was determined by the modified method of BEACH-STEINITZ (J. Pharmacol. Exp. Ther. 131 (1), 400, 1961). The product, administered i.p., causes a decrease of the capillary permeability which appears after 8 micromoles/kg, and higher doses, and the maximum effect is attained at a dose of 200 micromoles/kg.

[3] = Acute toxicity in the mouse (LD50, method of Reed and Muench); settings: in vivo
Method: as §2, §3

[4] = test system: plasma cholesterol, triglyceride, and total lipids levels; experiment: Hypolipedemic action in rats treated with Triton WR-1339; assay type: in vivo, Sprague-Dawley rats

Compound: O=S(=O)(O)c1cc(O)c(S(=O)(=O)O)cc1O [bis (ammonium) p-dihydroxy-benzene disulfonate] [bis (ammonium)-p-dihydroxy benzene disulfonate]
- DE50 (average bleeding time): 2,45 μmoles/kg

Compound: O=S(=O)(O)c1cc(O)c(S(=O)(=O)O)cc1O [bis (ammonium)-p-dihydroxy benzene disulfonate]
- LD50 ([1]; route not given): 1210 mg/kg

Compound: O=S(=O)(O)c1cc(O)c(S(=O)(=O)O)cc1O [bis (piperazine) p-dihydroxy-benzene disulfonate] [bis (piperazine) p-dihydroxy benzene disulfonate]
- DE50 (average bleeding time): 1,25 μmoles/kg
- DL50 ([1]; po): > 2000

Compound: O=S(=O)(O)c1cc(O)c(S(=O)(=O)O)cc1O [bis-diethylamine p-dihydroxy benzene disulfonate] [listing 1 of 2 here]
- LD50 ([2]; ip, I.P., rat female): 2440 mg/kg
- LD50 ([2]; ip, I.P., rat male): 2650 mg/kg
- LD50 ([2]; po, rat female): 4680 mg/kg
- LD50 ([2]; po, rat male): 5840 mg/kg
- ED (maximum effect) (capillary permeability; ip, read-out: dose at which maximum effect on capillary permeability is attained): 200 µmol/kg
- minimal effective dose (capillary permeability; ip, read-out: dose from which decrease of the capillary permeability appears): ≥ 8 µmol/kg
- LD50 ([3]; iv, I.V., mouse female): 1020 mg/kg
- LD50 ([3]; iv, I.V., mouse male): 1020 mg/kg
- LD50 ([3]; po, mouse female): 5880 mg/kg
- LD50 ([3]; po, mouse male): 6290 mg/kg

Compound: O=S(=O)(O)c1cc(O)c(S(=O)(=O)O)cc1O [bis-diethylamine p-dihydroxy benzene disulfonate] [listing 2 of 2 here]
- Percentage decrease of average bleeding time (average bleeding time; 0.625 micromoles/kg): 8.5%
- Percentage decrease of average bleeding time (average bleeding time; 1.25 micromoles/kg): 19.5%
- Percentage decrease of average bleeding time (average bleeding time; 2.5 micromoles/kg): 32.0%
- duration of effect on bleeding time (in words) (average bleeding time; 5 micromoles/kg): long lasting
- % decrease of average bleeding time (average bleeding time; 5 micromoles/kg, 1 hour after i.v. administration): 43.0%
- % decrease of average bleeding time (average bleeding time; 5 micromoles/kg, 2 hours after i.v. administration): 46.8%
- % decrease of average bleeding time (average bleeding time; 5 micromoles/kg, 4 hours after i.v. administration): 42.0%
- % decrease of average bleeding time (average bleeding time; 5 micromoles/kg, 8 hours after i.v. administration): 33.5%
- % decrease of average bleeding time (average bleeding time; 5 micromoles/kg, 16 hours after i.v. administration): 32.0%
- % decrease of average bleeding time (average bleeding time; 5 micromoles/kg, 24 hours after i.v. administration): 21.0%
- Percentage decrease of average bleeding time (average bleeding time; 5.0 micromoles/kg): 43.0%
- Percentage decrease of average bleeding time (average bleeding time; 7.05 micromoles/kg): 51.0%
- Percentage decrease of average bleeding time (average bleeding time; 10.0 micromoles/kg): 50.0%
- DE50 (average bleeding time): 2,25 μmoles/kg
- effect on bleeding time (in words) (average bleeding time; rabbit): produces a decrease of the bleeding time
- FREE CHOLESTEROL (plasma) ([4]; Triton + compound, Triton alone 60.5 ± 2.5): 54.4 ± 3.9 mg %
- TOTAL CHOLESTEROL (plasma) ([4]; Triton + compound, Triton alone 238.4 ± 6.5): 223.0 ± 15.1 mg %
- TRIGLYCERIDES (plasma) ([4]; Triton + compound, Triton alone 773.5 ± 59.1): 589.5 ± 57.9 mg %
- TOTAL LIPIDS (plasma) ([4]; Triton + compound, Triton alone 2466.9 ± 141.2): 2001.9 ± 193.7 mg %
- effect on increase of plasma cholesterol, triglyceride, and total lipids levels (in words) ([4]; Triton WR-1339 treated rats): significantly inhibits the increase
- dose dependence of decrease of capillary permeability (in words) (capillary permeability; i.p., intermediate doses (8 to 200 micromoles/kg)): effects proportional to the logarithm of the dose

Compound: O=S(=O)(O)c1cc(O)c(S(=O)(=O)O)cc1O [calcium p-dihydroxybenzene-disulfonate, calcium p-dihydroxy benzene disulfonate]
- DE50 (average bleeding time): 0,98 μmoles/kg
- DL50 ([1]; po): > 6880

Compound: O=S(=O)(O)c1cc(O)c(S(=O)(=O)O)cc1O [lithium p-dihydroxybenzene-disulfonate, lithium p-dihydroxy benzene disulfonate]
- DE50 (average bleeding time): 0,90 μmoles/kg
- DL50 ([1]; iv): 2186
